Reference: the supplement of paper PMC4862054

Assays:
Details in all cases: incubation time: 72 h
HCC1937 [1] = experiment: normalised response (% of control), CellTiter-Glo; higher = more viable cells (100 = DMSO, 0 = benzethonium chloride kill control)
Outline: (§1)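 For each plate, 0.1 % DMSO was set to 100 and a positive kill control to 0. Breast cancer cell lines (20 µl suspension) were seeded into 384-well plates already holding compound at 5 concentrations in 10-fold steps over a 10,000-fold range chosen per compound, and incubated for 72 h. CellTox Green fluorescence at 485/520 nm was read before CellTiter-Glo luminescence, which followed 10 min at room temperature. Each value is the normalised signal at one concentration.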

CAL-85-1 [2] = experiment: as above
Outline: as §1

SK-BR-3 [3] = experiment: as above
Outline: as §1

BT-549 [4] = experiment: as above
Outline: as §1

CAL-51 [5] = experiment: as above
Outline: as §1

MDA-MB-468 [6] = experiment: as above
Outline: as §1

DU-4475 [7] = experiment: as above
Outline: as §1

MDA-MB-436 [8] = experiment: as above
Outline: as §1

MCF-10A = experiment: as above
Outline: as §1

HCC1143 [9] = experiment: as above
Outline: as §1

BT-474 [10] = experiment: as above
Outline: as §1

CAL-148 [11] = experiment: as above
Outline: as §1

MDA-MB-453 [12] = experiment: as above
Outline: as §1

HCC1599 [13] = experiment: as above
Outline: as §1

MDA-MB-231 [14] = experiment: as above
Outline: as §1

HDQ-P1 [15] = experiment: as above
Outline: as §1

CAL-120 [16] = experiment: as above
Outline: as §1

Hs578T [17] = experiment: as above
Outline: as §1

MFM-223 [18] = experiment: as above
Outline: as §1

HCC1937 [19] = experiment: normalised viability (% of control), CellTiter-Blue; higher = more viable cells (100 = DMSO, 0 = benzethonium chloride kill control)
Protocol: (§2)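 DSRT, CellTiter-Blue viability, 72 h incubation. Signal is normalised to DMSO and benzethonium chloride controls. Value is the normalised response at dose 1.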

CAL-85-1 [20] = experiment: as above
Protocol: as §2

SK-BR-3 [21] = experiment: as above
Protocol: as §2

BT-549 [22] = experiment: as above
Protocol: as §2

CAL-51 [23] = experiment: as above
Protocol: as §2

MDA-MB-468 [24] = experiment: as above
Protocol: as §2

DU-4475 [25] = experiment: as above
Protocol: as §2

MDA-MB-436 [26] = experiment: as above
Protocol: as §2

HCC1143 [27] = experiment: as above
Protocol: as §2

BT-474 [28] = experiment: as above
Protocol: as §2

CAL-148 [29] = experiment: as above
Protocol: as §2

MDA-MB-453 [30] = experiment: as above
Protocol: as §2

HCC1599 [31] = experiment: as above
Protocol: as §2

MDA-MB-231 [32] = experiment: as above
Protocol: as §2

HDQ-P1 [33] = experiment: as above
Protocol: as §2

CAL-120 [34] = experiment: as above
Protocol: as §2

Hs578T [35] = experiment: as above
Protocol: as §2

MFM-223 [36] = experiment: as above
Protocol: as §2

| SMILES | normalised response (HCC1937 [1]) [%] | normalised response (CAL-85-1 [2]) [%] | normalised response (SK-BR-3 [3]) [%] | normalised response (BT-549 [4]) [%] | normalised response (CAL-51 [5]) [%] | normalised response (MDA-MB-468 [6]) [%] | normalised response (DU-4475 [7]) [%] | normalised response (MDA-MB-436 [8]) [%] | normalised response (MCF-10A) [%] | normalised response (HCC1143 [9]) [%] | normalised response (BT-474 [10]) [%] | normalised response (CAL-148 [11]) [%] | normalised response (MDA-MB-453 [12]) [%] | normalised response (HCC1599 [13]) [%] | normalised response (MDA-MB-231 [14]) [%] | normalised response (HDQ-P1 [15]) [%] | normalised response (CAL-120 [16]) [%] | normalised response (Hs578T [17]) [%] | normalised response (MFM-223 [18]) [%] | normalised viability (HCC1937 [19]) [%] | normalised viability (CAL-85-1 [20]) [%] | normalised viability (SK-BR-3 [21]) [%] | normalised viability (BT-549 [22]) [%] | normalised viability (CAL-51 [23]) [%] | normalised viability (MDA-MB-468 [24]) [%] | normalised viability (DU-4475 [25]) [%] | normalised viability (MDA-MB-436 [26]) [%] | normalised viability (HCC1143 [27]) [%] | normalised viability (BT-474 [28]) [%] | normalised viability (CAL-148 [29]) [%] | normalised viability (MDA-MB-453 [30]) [%] | normalised viability (HCC1599 [31]) [%] | normalised viability (MDA-MB-231 [32]) [%] | normalised viability (HDQ-P1 [33]) [%] | normalised viability (CAL-120 [34]) [%] | normalised viability (Hs578T [35]) [%] | normalised viability (MFM-223 [36]) [%] |
| --- | --- | --- | --- | --- | --- | --- | --- | --- | --- | --- | --- | --- | --- | --- | --- | --- | --- | --- | --- | --- | --- | --- | --- | --- | --- | --- | --- | --- | --- | --- | --- | --- | --- | --- | --- | --- | --- |
| CN1CCC(COc2cnc(-c3cccc(Cn4nc(-c5cccc(C#N)c5)ccc4=O)c3)nc2)CC1 (1 nM) | 103 | 90.4 | 71 | 93.5 | 127 | 92.3 | 100 | 91.4 | 93.9 | 102 | 101 | 97.8 | 91.3 | 112 | 95.1 | 95.3 | 99.1 | 96.7 | 93.6 | 86.7 | 99.6 | 96.4 | 93.2 | 90.5 | 92.5 | 100 | 98.7 | 110 | 83.7 | 89.6 | 104 | 110 | 77.3 | 77.4 | 102 | 98.4 | 101 |
| OC[C@H]1O[C@@H](n2cnc3c2N=CNC[C@H]3O)C[C@@H]1O [Pentostatin] (1 nM) | 100 | 94.8 | 108 | 93.8 | 111 | 101 | 103 | 83.4 | 107 | 103 | 98.7 | 104 | 107 | 121 | 98.8 | 100 | 96.7 | 98.4 | 99.8 | 81.8 | 99.5 | 86.8 | 91.7 | 89.3 | 105 | 102 | 99 | 96.9 | 82.4 | 118 | 110 | 114 | 96.6 | 108 | 114 | 109 | 93.2 |
| N#CC[C@H](C1CCCC1)n1cc(-c2ncnc3[nH]ccc23)cn1 [Ruxolitinib] (1 nM) | 92.8 | 101 | 83.5 | 102 | 120 | 101 | 91.9 | 86.7 | 82 | 93.1 | 96.8 | 92.8 | 94.4 | 93.5 | 102 | 93.5 | 93.8 | 95.8 | 90.1 | 102 | 114 | 101 | 89.9 | 89.4 | 96.6 | 104 | 96.9 | 101 | 98.2 | 94.5 | 101 | 101 | 82.5 | 85.7 | 106 | 102 | 98.8 |
| C=CC[C@@H]1/C=C(\C)C[C@H](C)C[C@H](OC)[C@H]2O[C@@](O)(C(=O)C(=O)N3CCCC[C@H]3C(=O)O[C@H](/C(C)=C/[C@@H]3CC[C@@H](O)[C@H](OC)C3)[C@H](C)[C@@H](O)CC1=O)[C@H](C)C[C@@H]2OC [Tacrolimus] (1 nM) | 98.8 | 97.8 | 109 | 96.6 | 93.1 | 98.7 | 102 | 103 | 106 | 93.9 | 101 | 103 | 110 | 103 | 99.3 | 118 | 98 | 99.1 | 98.5 | 102 | 98.6 | 98.2 | 109 | 105 | 110 | 98.5 | 119 | 109 | 71 | 110 | 107 | 99.3 | 102 | 114 | 111 | 106 | 116 |
